Measured values from ChEMBL document CHEMBL3351921, “Structure-activity relationships (SAR) and structure-kinetic relationships (SKR) of pyrrolopiperidinone acetic acids as CRTh2 antagonists” (Bioorg Med Chem Lett, 2014).

Tests used:
[1] = biological target: T1, Prostaglandin D2 receptor (Homo sapiens) (UniProt Q13258); assay: Inhibition of at prostanoid DP1 receptor (unknown origin) at 10 uM
T1 sequence (whole entry): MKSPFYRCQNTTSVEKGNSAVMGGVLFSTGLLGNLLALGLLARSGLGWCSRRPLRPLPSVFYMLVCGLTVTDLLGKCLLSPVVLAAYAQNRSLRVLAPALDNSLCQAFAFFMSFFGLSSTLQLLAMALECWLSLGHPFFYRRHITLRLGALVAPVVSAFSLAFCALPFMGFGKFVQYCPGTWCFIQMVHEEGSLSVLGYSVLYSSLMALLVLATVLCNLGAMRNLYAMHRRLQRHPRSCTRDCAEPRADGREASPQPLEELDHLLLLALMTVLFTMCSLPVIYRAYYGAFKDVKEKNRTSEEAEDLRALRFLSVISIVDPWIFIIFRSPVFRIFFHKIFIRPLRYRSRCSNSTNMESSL

[2] = biological target: T2, Thromboxane A2 receptor (Homo sapiens) (UniProt P21731); assay: Inhibition of at prostanoid TP receptor (unknown origin) at 10 uM
T2 sequence (whole entry): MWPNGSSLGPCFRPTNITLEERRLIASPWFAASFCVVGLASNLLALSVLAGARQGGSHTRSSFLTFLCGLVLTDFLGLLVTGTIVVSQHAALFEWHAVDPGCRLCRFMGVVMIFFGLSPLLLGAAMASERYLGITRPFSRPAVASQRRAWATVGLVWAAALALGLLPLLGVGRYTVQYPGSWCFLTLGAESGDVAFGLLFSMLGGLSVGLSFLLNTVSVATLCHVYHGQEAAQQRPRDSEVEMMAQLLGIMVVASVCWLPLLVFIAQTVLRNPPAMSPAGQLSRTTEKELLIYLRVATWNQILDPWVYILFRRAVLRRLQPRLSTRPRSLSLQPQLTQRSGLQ

[3] = Dissociation constant, pKa of the compound by potentiometric method; type: physicochemical
[4] = biological target: T3, Prostaglandin D2 receptor 2 (Homo sapiens) (UniProt Q9Y5Y4); settings: CHO.K1
T3 sequence (whole entry): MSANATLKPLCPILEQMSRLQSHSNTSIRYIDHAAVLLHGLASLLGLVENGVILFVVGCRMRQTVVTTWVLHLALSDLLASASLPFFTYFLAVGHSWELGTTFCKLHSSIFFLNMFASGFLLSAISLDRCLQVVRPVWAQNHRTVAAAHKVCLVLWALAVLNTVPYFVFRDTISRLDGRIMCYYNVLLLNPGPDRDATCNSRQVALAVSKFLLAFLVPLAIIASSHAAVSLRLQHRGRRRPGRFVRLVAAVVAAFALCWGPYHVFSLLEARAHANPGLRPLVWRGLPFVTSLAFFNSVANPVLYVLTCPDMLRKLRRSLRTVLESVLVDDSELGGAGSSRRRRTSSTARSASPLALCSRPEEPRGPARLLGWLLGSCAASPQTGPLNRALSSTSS
Description: Antagonist activity at CRTh2 (unknown origin) stably expressed in PGD2-stimulated CHO.K1 cells assessed as dissociation half-life at 5 to 10 times IC50 after 2 hrs by radio-labelled [35S]-GTPgammaS binding assay

[5] = biological target: T4, Prostaglandin D2 receptor 2 (Homo sapiens, UniProt Q9Y5Y4); assay: Antagonist activity at CRTh2 (unknown origin) stably expressed in PGD2-stimulated CHO.K1 cells preincubated for 1 hr by radio-labelled [35S]-GTPgammaS binding assay; type: functional, cell-based
T4 sequence (Q9Y5Y4 whole entry): T3 sequence (whole entry)

[6] = Apparent permeability across apical to basolateral side of human Caco2 cells at pH 7.4; type: ADME, cell-based; settings: Caco-2, pH 7.4

SMILES | T1/2 [4] [h] | IC50 [5] [nM] | further results
CCS(=O)(=O)c1ccccc1Cc1c2c(n(CC(=O)O)c1C)CCNC2=O |  | 550 | 
Cc1c(Cc2ccccc2Oc2ccccc2)c2c(n1CC(=O)O)CCNC2=O |  | 530 | 
Cc1c(Cc2ccccc2S(=O)(=O)N2CCOCC2)c2c(n1CC(=O)O)CCNC2=O | 0.6 | 22 | 
CNC(=O)c1cccc(S(=O)(=O)c2ccccc2Cc2c3c(n(CC(=O)O)c2C)CCNC3=O)c1 |  | 240 | 
Cc1c(Cc2ccccc2S(=O)(=O)c2ccc(F)cc2)c2c(n1CC(=O)O)CC(C)(C)NC2=O | 18 |  | 
COC(=O)c1ccc(Cc2c3c(n(CC(=O)O)c2C)CCNC3=O)c(S(=O)(=O)c2ccccc2)c1 | 1.8 |  | 
Cc1c(Cc2ccccc2Cc2ccccc2)c2c(n1CC(=O)O)CCNC2=O |  | 120 | Papp A→B [6]: 0.2 ×10⁻⁶ cm/s
Cc1c(Cc2ccc(S(=O)(=O)Cc3ccccc3)cc2)c2c(n1CC(=O)O)CCNC2=O | 0.9 | 3 | 
Cc1c(Cc2ccccc2-c2cccc3ccccc23)c2c(n1CC(=O)O)CCNC2=O |  | 480 | 
Cc1c(Cc2ccccc2S(=O)(=O)C2CCCCC2)c2c(n1CC(=O)O)CCNC2=O |  | 28 | 

Further lines, with some results ahead:

T1/2 [4] [h] | IC50 [5] [nM] | SMILES | further results
6.7 |  | Cc1c(Cc2ccccc2S(=O)(=O)c2ccccc2)c2c(n1CC(=O)O)CCN(Cc1ccccc1)C2=O | inhibition [1]: < 30%; inhibition [2]: < 30%; pKa [3]: 3.3
1.3 | 6.6 | Cc1c(Cc2ccccc2S(=O)(=O)c2ccc(OC(F)(F)F)cc2)c2c(n1CC(=O)O)CCNC2=O | 
2 | 16 | Cc1c(Cc2ccccc2S(=O)(=O)c2ccccc2)c2c(Cl)nccc2n1CC(=O)O | 
4.2 |  | COc1ccc(S(=O)(=O)c2ccccc2)c(Cc2c3c(n(CC(=O)O)c2C)CCNC3=O)c1 | inhibition [1]: < 30%; inhibition [2]: < 30%
8 |  | Cc1c(Cc2ccccc2S(=O)(=O)c2ccccc2)c2c(=O)n(C)ccc2n1CC(=O)O | inhibition [1]: < 30%; inhibition [2]: < 30%; Papp A→B [6]: 0.1 ×10⁻⁶ cm/s
 | 430 | Cc1c(Cc2ccccc2S(=O)(=O)c2ccccc2)c2c(n1[C@H](C)C(=O)O)CCNC2=O | 
5.3 | 7 | Cc1c(Cc2ccccc2S(=O)(=O)c2ccccc2)c2c(n1CC(=O)O)CCN(C)C2=O | pKa [3]: 2.9
2.1 | 6 | Cc1c(Cc2ccccc2S(=O)(=O)c2ccccc2)c2c(n1CC(=O)O)CCN(C(C)C(F)(F)F)C2=O (stereo not given) | Papp A→B [6]: 0.6 ×10⁻⁶ cm/s
5.7 |  | Cc1c(Cc2cc(Br)ccc2S(=O)(=O)c2ccccc2)c2c(n1CC(=O)O)CCNC2=O | 
0.9 |  | Cc1c(Cc2ccc(C(F)(F)F)cc2S(=O)(=O)c2ccccc2)c2c(n1CC(=O)O)CCNC2=O | inhibition [1]: < 30%; inhibition [2]: < 30%
4.6 | 10 | CNC(=O)c1ccc(Cc2c3c(n(CC(=O)O)c2C)CCNC3=O)c(S(=O)(=O)c2ccccc2)c1 | 
1.2 |  | Cc1c(Cc2ccccc2S(=O)(=O)c2cccc(Cl)c2)c2c(n1CC(=O)O)CCNC2=O | inhibition [1]: < 30%; inhibition [2]: < 30%; pKa [3]: 3.1
